Laboratory results from publication PMC4691102, “Antioxidant and ACE Inhibitory Bioactive Peptides Purified from Egg Yolk Proteins” (International Journal of Molecular Sciences, 2015).

Columns and labels:
[1] = Hydroxyl radical scavenging activity (HRSA) assay; settings: standard 0.2 mg/mL, 37 °C 1 h, pH 7.4, 532 nm, mean ± SD of three independent experiments
Protocol: The HRSA assay was performed as described by Wu et al.. The reaction mixture consisted of 0.1 mL of 10 mM FeSO4, 0.1 mL of 10 mM EDTA, 0.5 mL of 10 mM α-deoxyribose, 0.9 mL sodium phosphate buffer pH 7.4, and 0.2 mL of peptides at different concentrations (0.5, 1, 5, 10 and 20 mg/mL). All reagents were then thoroughly mixed in a tube and 0.2 mL of 10 mM hydrogen peroxide was added. The reaction mixture was then incubated at 37 °C for 1 h. Following incubation, 1 mL of 2.8% TCA and 1 mL of 1.0% TBA were added to the test tubes, and the contents boiled for 15 min. After cooling at room temperature, the absorbance of the mixture was measured at 532 nm. Trolox and BHT (both used at concentration 0.2 mg/mL) were also tested as positive controls for comparison. The HRSA was evaluated as a percentage of α-deoxyribose oxidation inhibition by the hydroxyl radical and calculated as follows: HRSA (%)=AC−AS/AC×100 where AC is the absorbance for negative control using 500 μL deionized water instead of sample, AS is the absorbance of the sample or positive controls (trolox/BHT).

[2] = DPPH radical scavenging activity; settings: for DPPH Scavenging activity: standard 0.2 mg/mL, 60 min, room temperature, dark, 517 nm, mean ± SD of three independent experiments; for Antioxidant activity (DPPH scavenging) of peptide compared with synthetic antioxidant: peptide 10 mg/mL versus 0.2 mg/mL BHT (Figure 7), abstract prints BHA
Protocol: The method used was in accordance with Bersuder et al. using the synthetic free radical DPPH. Briefly, a volume of 500 μL of selected fractions at different concentrations (0.5, 1, 5, 10 and 20 mg/mL) was mixed with 500 μL of 99.5% ethanol and 125 μL of 0.02% w/v DPPH prepared previously in 99.5% ethanol. The mixture was shaken vigorously then kept at room temperature in the dark. After 60 min, the color reduction of the DPPH substrate was measured at an absorbance of 517 nm. Trolox and BHT (both used at concentration 0.2 mg/mL) were also tested as positive controls for comparison. The DPPH radical scavenging activity was calculated as follows: Radical scavenging activity (%)=AC−AS/AC×100 where AC is the absorbance for negative control using 500 μL deionized water instead of sample, AS is the absorbance of the sample or positive controls (trolox/BHT). A lower absorbance of the reaction mixture indicated a higher DPPH radical-scavenging activity.

[3] = Lipid oxidation in linoleic acid model system, ferric thiocyanate (FTC) method; settings: positive control 0.2 mg/mL; after four days incubation at 40 °C; 500 nm; mean of three independent experiments
Protocol: The inhibition of lipid peroxidation by the EYPH fractions was measured using linoleic acid oxidized as described below. The degree of oxidation was measured using (FTC) and (TBARS) methods. In order to prepare the reaction mixture, 50 mg of each sample was dissolved individually with 10 mL absolute ethanol, 0.13 mL linoleic acid, 4.87 mL distilled water and 10 mL 50 mM sodium phosphate buffer (pH 7). Samples were homogenized by a sonicator (Labsonic® M, B. Braun Biotech International, Melsungen, Germany). The tubes were then sealed tightly with silicone rubber caps and kept in the dark at 40 °C in an oven. […] A negative control was prepared in the same manner using distilled water in place of egg yolk hydrolysates. […] After exactly 3 min, the absorbance of the resulting ferric thiocyanate solution was read at 500 nm using a spectrophotometer (Kontron Instrument UNIKON 860, Cambridge, UK). […] The absorbance of the upper layer was measured at 532 nm using a spectrophotometer (Kontron Instrument UNIKON 860) Malonaldehyde standard curve was prepared using 1,1,3,3-tetramethoxypropane and TBARS were expressed as μg of malonaldehyde/mL. The percentage (%) of lipid oxidation inhibition was calculated according to the following formula: Lipid oxidation inhibition (%)=Absorbance of control − Absorbance of sample/Absorbance of control×100

[4] = Superoxide anion scavenging activity (pyrogallol autoxidation); settings: standard 0.2 mg/mL, Tris-HCl pH 8.2, 25 °C, 320 nm, mean ± SD of three independent experiments
Protocol: In this assay, the alkaline condition enhances the autoxidation of pyrogallol to produce a superoxide anion, which, in turn, accelerates the autoxidation process by autocatalysis. The autoxidation of a pyrogallol method described by Marklund and Marklund was applied to measure the superoxide anion scavenging power of egg yolk peptides. The reaction mixture consisted of 1.0 mL of peptides sample at different concentrations ([…], 5.0, 10 and 20 mg/mL) and 1.8 mL of 50 mM Tris-HCl buffer, previously adjusted to pH 8.2. The mixture was incubated at 25 °C for 20 min. Then, 40 μL of 45 mM pyrogallol (prepared previously in 10 mM HCl) was added. The absorbance of the reaction mixture was measured at 320 nm immediately after adding pyrogallol at 1 min intervals up to 4 min. Trolox and BHT (both used at a concentration of 0.2 mg/mL) were also tested as positive controls for comparison.

[5] = Lipid oxidation in linoleic acid model system, TBARS method; settings: positive control 0.2 mg/mL; after four days incubation at 40 °C; 532 nm; mean of three independent experiments
Protocol: The inhibition of lipid peroxidation by the EYPH fractions was measured using linoleic acid oxidized as described below. The degree of oxidation was measured using (FTC) and (TBARS) methods. In order to prepare the reaction mixture, 50 mg of each sample was dissolved individually with 10 mL absolute ethanol, 0.13 mL linoleic acid, 4.87 mL distilled water and 10 mL 50 mM sodium phosphate buffer (pH 7). Samples were homogenized by a sonicator (Labsonic® M, B. Braun Biotech International, Melsungen, Germany). The tubes were then sealed tightly with silicone rubber caps and kept in the dark at 40 °C in an oven. […] A negative control was prepared in the same manner using distilled water in place of egg yolk hydrolysates. The commercial antioxidants, 0.2 mg/mL of BHT and trolox were also used as positive controls. […] The absorbance of the upper layer was measured at 532 nm using a spectrophotometer (Kontron Instrument UNIKON 860) Malonaldehyde standard curve was prepared using 1,1,3,3-tetramethoxypropane and TBARS were expressed as μg of malonaldehyde/mL. The percentage (%) of lipid oxidation inhibition was calculated according to the following formula: Lipid oxidation inhibition (%)=Absorbance of control − Absorbance of sample/Absorbance of control×100

[6] = Ferrous chelating activity assay (ferrozine); settings: EDTA 0.2 mg/mL, 10 min room temperature, 563 nm, mean ± SD of three independent experiments
Protocol: The activity of the peptide to chelate ferrous Fe^2+ ions was measured according to the method of Ebrahimzadeh et al.. The reaction mixture contained 0.5 mL of isolated peptides at different concentrations (0.5, 1, 5, 10 and 20 mg/mL), 1.6 mL deionized water and 0.05 mL of 2 mM FeCl2. After 30 s, 0.1 mL of 5 mM ferrozine was added. After 10 min at room temperature, the absorbance of the Fe^2+-ferrozine complex was measured at 563 nm. EDTA (0.2 mg/mL) was also tested as a positive control for comparison. The activity of the peptide to chelate Fe^2+ was calculated as: Chelating ability (%) =AC−AS/AC×100 where AC is the absorbance of the control, using 0.5 mL deionized water instead of sample, AS is the absorbance of the sample or positive control EDTA.

[7] = molecular target: angiotensin converting enzyme (ACE) (Homo sapiens, UniProt P12821); test: ACE inhibitory activity by HPLC (HHL substrate, hippuric acid at 228 nm); settings: peptide 10 mg/mL versus captopril 0.5 mg/mL, Dunnett's test, p < 0.05, Figure 8
Chain of angiotensin converting enzyme (ACE) (P12821 30-1306, species assumed): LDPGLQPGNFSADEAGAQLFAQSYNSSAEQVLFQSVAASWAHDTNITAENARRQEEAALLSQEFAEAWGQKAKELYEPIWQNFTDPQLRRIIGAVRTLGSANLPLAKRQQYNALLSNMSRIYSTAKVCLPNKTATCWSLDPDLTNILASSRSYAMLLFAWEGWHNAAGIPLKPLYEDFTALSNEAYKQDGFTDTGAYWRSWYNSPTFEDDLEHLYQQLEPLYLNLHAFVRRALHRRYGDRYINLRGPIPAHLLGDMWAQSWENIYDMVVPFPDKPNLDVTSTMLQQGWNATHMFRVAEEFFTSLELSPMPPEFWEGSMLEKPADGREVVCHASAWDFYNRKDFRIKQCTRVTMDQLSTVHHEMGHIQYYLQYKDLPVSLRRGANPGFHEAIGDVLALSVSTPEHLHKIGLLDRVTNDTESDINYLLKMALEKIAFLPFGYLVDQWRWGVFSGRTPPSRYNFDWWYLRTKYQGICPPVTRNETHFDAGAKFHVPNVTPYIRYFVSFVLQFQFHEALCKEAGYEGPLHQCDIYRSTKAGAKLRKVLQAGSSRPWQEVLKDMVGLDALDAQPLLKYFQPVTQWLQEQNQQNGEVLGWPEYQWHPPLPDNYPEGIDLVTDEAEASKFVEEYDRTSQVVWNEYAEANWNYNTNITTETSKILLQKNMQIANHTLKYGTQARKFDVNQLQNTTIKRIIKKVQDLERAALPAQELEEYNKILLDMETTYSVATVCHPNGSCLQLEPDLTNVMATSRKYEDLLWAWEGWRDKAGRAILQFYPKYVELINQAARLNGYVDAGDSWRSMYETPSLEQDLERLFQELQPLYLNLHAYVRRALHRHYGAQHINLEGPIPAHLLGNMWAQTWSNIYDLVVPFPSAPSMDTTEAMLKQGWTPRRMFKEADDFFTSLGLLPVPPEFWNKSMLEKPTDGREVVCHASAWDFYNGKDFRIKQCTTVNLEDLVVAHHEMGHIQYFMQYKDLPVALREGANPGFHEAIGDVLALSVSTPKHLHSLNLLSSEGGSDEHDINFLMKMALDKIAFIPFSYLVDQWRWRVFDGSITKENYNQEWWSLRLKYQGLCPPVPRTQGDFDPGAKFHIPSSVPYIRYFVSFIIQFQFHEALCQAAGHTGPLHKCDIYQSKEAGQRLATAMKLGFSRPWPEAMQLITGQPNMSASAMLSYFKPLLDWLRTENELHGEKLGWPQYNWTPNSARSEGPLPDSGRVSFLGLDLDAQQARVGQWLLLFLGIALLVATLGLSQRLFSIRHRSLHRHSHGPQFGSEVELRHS
Protocol: The measurement of ACE inhibitory activity was conducted using HPLC in accordance with a modified method of Wu et al. [53]. All samples were prepared with 100 mM borate buffer, containing 300 mM NaCl at pH = 8.3. […] The peptide fractions and HHL were mixed and maintained at 37 °C for 10 min in 2 mL polyethylene microcentrifuge tubes. ACE was maintained at 37 °C for 10 min before the two solutions were combined. The combined mixture was incubated at 37 °C for 30 min with continuous agitation. In order to terminate the reaction, 85 μL of 1 M HCl was added. Samples were analyzed on a C18 column (3.0 mm × 150 mm, 5 μm, phenomenex) and hippuric acid (HA) and HHL were detected at 228 nm using HPLC system (Ultimate 3000 HPLC, Thermo Fisher Scientific Inc., Loughborough, UK). Data were analyzed using integration software (Chromeleon, Thermo Fisher Scientific Inc., Loughborough, UK).

With `Cc1c(C)c2c(c(C)c1O)CCC(C)(C(=O)O)O2` (centres unmarked) [Trolox, trolox] the “Hydroxyl radical scavenging activity” value [1] was 70.03% ± 3.48%, the “DPPH Scavenging activity” value [2] was 38.5% and the “DPPH Scavenging activity” value ([2]; SD) was 38.46% ± 1.43%. The “Lipid Oxidation (%), FTC method” value [3] was 32.2%, the “Superoxide anion scavenging activity” value [4] was 63.48% ± 1.63% and the “Lipid Oxidation (%), TBARS method” value [5] was 28.7%.

For `O=C(O)CN(CCN(CC(=O)O)CC(=O)O)CC(=O)O` [EDTA], the “Fe2+ chelating activity” value [6] was 97.54% ± 1.79%.

For YPSPV, the “ACE inhibitory activity of synthesized peptide compared with captopril” value [7] was “higher ACE inhibitory activity compared with captopril”.

With SDNRNQGY the “ACE inhibitory activity of synthesized peptide compared with captopril” value [7] was “not significantly different from that of the positive control captopril”.

With WYGPD the “Antioxidant activity (DPPH scavenging) of peptide compared with synthetic antioxidant” value [2] was “not significantly different from the synthetic BHA antioxidant”.

In the case of `Cc1cc(C(C)(C)C)c(O)c(C(C)(C)C)c1` [BHT, butylated hydroxyltoluene], the “Hydroxyl radical scavenging activity” value [1] is reported as 58.97% ± 1.02%, the “DPPH Scavenging activity” value [2] is reported as 23.6% and the “DPPH Scavenging activity” value ([2]; SD) is reported as 23.60% ± 1.66%. For the same molecule, the “Lipid Oxidation (%), FTC method” value [3] was 23.3%, the “Superoxide anion scavenging activity” value [4] was 67.45% ± 1.67% and the “Lipid Oxidation (%), TBARS method” value [5] was 26.1%.

For KLSDW, the “Antioxidant activity (DPPH scavenging) of peptide compared with synthetic antioxidant” value [2] was “not significantly different from the synthetic BHA antioxidant”.
